Data on 1 sequence can be found in patent US7807176B2, “Polypeptide promoting vascular endothelial cell growth” (Genomidea, Inc., priority 2004, dated 2010).

Entries after “also recorded” stand apart in the source; their conditions may differ.

Test [1] relates to tube formation. In words: Tube formation, Kurabo Angiogenesis kit with CD31 staining and image quantification. The settings on record: for tube Area % Increase / tube Length % Increase: Table 2; for Area (% increase): Example 5, Table 4; for Length (% increase): Example 5, Table 5. Type of test: cell-based, human. As for the experimental part:
Using a Kurabo Angiogenesis kit (KZ-1000, Kurabo Industries Ltd.), tube formation was examined. A blank, vascular endothelial growth factor-A protein (VEGF-A), pVEGF plasmid (plasmid containing a gene encoding vascular endothelial growth factor), and pSPORT1 (a plasmid not containing a gene encoding vascular endothelial growth factor) were used as controls. […]
Culture was carried out at 37° C. in a 5% CO2 incubator. The medium was exchanged on the 4th, 7th and 9th days of culture with a fresh medium containing the same additives.
CD31 (PECAM-1) staining primary antibody (mouse anti-human CD31 antibody) was diluted 4,000-fold with a blocking solution (Dulbecco's phosphate buffer solution (PBS(−)) containing 1% BSA). 0.5 ml of this primary antibody solution was added to each well and incubated for 60 minutes at 37° C. After incubation was finished, each well was washed 3 times with 1 ml blocking solution.
Then, 0.5 ml of a secondary antibody (goat anti-mouse IgG/alkali phosphatase conjugate) solution, diluted 500-fold with the blocking solution, was added to each well and incubated for 60 minutes at 37° C., and each well was washed 3 times with 1 ml distilled water. Separately, 2 tablets of BCIP/NBT were dissolved in 20 ml distilled water and filtered through a filter with a pore size of 0.2 μm, to prepare a substrate solution. 0.5 ml of the prepared BCIP/NBT substrate solution was added to each well and incubated at 37° C. until the tube turned deep violet (usually in 5 to 10 minutes). After incubation was finished, each well was washed 3 times with 1 ml distilled water, followed by removing the washing solution using suction, and the plate was left to air-dry. After drying, each well was observed under a microscope.
Each well was observed under a 40× magnification microscope and a photograph of each well was taken. An enlarged photograph with the scale of 1 mm magnified 40-fold was taken (FIG. 5).
Each of the resulting images was quantified with angiogenesis quantification software (KSW-5000U, Kurabo Industries Ltd.) according to the following method. The area (left in FIG. 6) and length (right in FIG. 6) of tubes formed in each visual field were measured on the scale by computer analysis with various indicators. […]

Test [2] has as its system C57BL/6 female mouse. In words: Matrigel plug assay, in vivo angiogenesis. The settings on record: 1 μg/ml in Matrigel, subcutaneous, after 7 days. As for the experimental part:
In order to examine the in vivo angiogenesis-promoting activity of F2 peptide, a Matrigel plug assay (Rikitake, Y et al., Arterioscler Thromb Vasc Biol 20, 1006-1012 (2000)) was carried out. Together with any one of VEGF-A (50 ng/ml), F2 peptide (1 μg/ml) or the control peptide (1 μg/ml) or without adding any sample (negative control), Matrigel (0.5 ml, BD Biosciences, Franklin Lakes, N.J.) depleted of growth factor was mixed with 40 U/ml heparin (Aventis Pharma, Tokyo, JP). Then, each mixture was injected subcutaneously into a C57BL/6 female mouse obtained from Oriental Bioscience (Kyoto, JP). After 7 days, the mouse was sacrificed, and the plug was recovered and fixed in methanol. For immune staining, the section was incubated overnight at 4° C. with anti-CD31 (PECAM-1) monoclonal antibody (diluted at 1:100, BD Pharmigen, San Diego, Calif.) and then incubated for 2 hours with Alexa Flour 488 secondary antibody (1:1000, Molecular Probes, Eugene, Oreg.) before photographing. Every experimental protocol was approved by Animal Committee, Medical Department, Graduate School, Osaka University, JP.

Test [3] concerns transforming growth factor (TGF-β) mRNA. In words: Growth factor mRNA expression level: TGF-β. The format is cell-based.
The test system of test [4] is insulin-like growth factor-1 (IGF-1) mRNA. In words: Growth factor mRNA expression level: IGF-1. Type of test: cell-based.
The test system of test [5] is microorganism. In words: Antimicrobial activity, minimum inhibitory concentration on microtiter plate. Type of test: cell-based. Conditions: Example 7, method only, MIC not given. The procedure: The antimicrobial activity is evaluated according to US National Committee for Clinical Laboratory Standard (NCCL Documents M7-A3). That is, the minimum concentration of the peptide at which microbial growth is inhibited is determined on a microtiter plate. A microorganism is cultured for 16 hours and then the absorbance at A600 thereof measured. From correlation of predetermined turbidity with colony forming unit (CFU), the […] is diluted with a medium to attain a specified CFU. Each microorganism strain is added at about 5×10^5 CFU/ml (final concentration). 5 mM aqueous solution of each peptide and 1.6 mM solution using a medium are prepared and used in serial dilution. 50 μl peptide at each concentration is pipetted into each well of a microtiter plate into which 50 μl/well microbial suspension has been pipetted (the final concentration of the peptide is 3.1 μM to 800 μM). A well to which the peptide was not added is used as the negative control. […] The concentration shown as results is MIC (μM). According to this method, the antimicrobial activity of the F2 peptide is determined.

As for “MLSLIFLHRLKSMRKRLDRKLRFWHRKNYP (listed as Homo sapiens) [F2 peptide]”, the entries for the “tube Area % Increase” value in test [1] (100 ng/ml), in test [1] (1 μg/ml) and in test [1] (10 μg/ml) were 61%, 55% and 132%, respectively. Also, the “tube Length % Increase” value in test [1] (100 ng/ml) is given as 53%; in test [1] (1 μg/ml), 50%; in test [1] (10 μg/ml), 116%. Besides, the figures for the “Area (% increase)” value in test [1] (1 μg/ml) and in test [1] (10 μg/ml) were 41.8% and 131.4%, respectively. Moreover, the “Length (% increase)” value in test [1] (1 μg/ml) is listed as 38.5%; in test [1] (10 μg/ml), 115.5%. Further, in test [1] (10 μg/ml, FIG. 15), the “angiogenesis activity compared with LL-37 peptide (in words)” value is recorded as “higher angiogenesis activity at a dose of 10 μg/ml than that of LL-37 peptide”. Moreover, in test [1] (F2 0.1, 1, 10 μg/ml versus VEGF 50 ng/ml and control peptide), the “in vitro angiogenesis activity (in words)” value is “larger blood vessels were formed; also recorded: stronger angiogenesis enhancing activity than that of VEGF”. Moreover, the “newly formed blood vessels containing intact erythrocytes in the plug” value in test [2] (FIG. 12) is “more newly formed blood vessels containing intact erythrocytes than in the mouse receiving a Matrigel containing the control peptide”. In addition, the “newly formed blood vessels by immune staining with anti-CD31 antibody” value in test [2] (FIG. 13) is reported as “more newly formed blood vessels”. Besides, in test [3], the “effect on mRNA level of TGF-β (in words)” value is reported as “did not have any effect”. Also, the “TGF-b mRNA Increased Amount [times]” value in test [3] (24 hrs) worked out at 2.6 times; in test [3] (48 hrs), 13.6 times; in test [3] (72 hrs) it was 1.6 times. Besides, the “IGF-1 mRNA Increased Amount [times]” value in test [4] (24 hrs) amounted to 46.2 times; in test [4] (48 hrs), 97.9 times; in test [4] (72 hrs), 243.8 times. Besides, the “effect on mRNA level of IGF-1 (in words)” value in test [4] (over 72 hours, FIG. 16) is “up-regulated the mRNA level of insulin-like growth factor-1 (IGF-1) potently and specifically in a time-dependent manner”. Moreover, the antimicrobial activity result in test [5] is listed as “has an antimicrobial activity”.
